Among the data in PubChem BioAssay (NCI) are TGI values, retold here.

Structures are written as SMILES. Where “and” joins values, the source holds several entries; their conditions need not be identical. Equal values may be shown once.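 96-well plates; 48 h exposure; 5 concentrations. Endpoints by linear interpolation between flanking doses. Not reached: highest tested concentration assigned. TGI: concentration producing complete growth inhibition.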 Where only a bound is given, the exact number is not on record here.

Assay in all cases: inhibition of tumour cell growth, NCI panel, 48 h
Assay [1] relates to BT-549 breast.
The subject of assay [2] is COLO 205 colon.
The subject of assay [3] is DU-145 prostate.
The test system of assay [4] is HL-60(TB) leukemia.
Assay [5] deals with HT29 colon.
Assay [6] relates to K-562 leukemia.
For assay [7], the system named is KM12 colon.
The test system of assay [8] is LOX IMVI melanoma.
For assay [9], the system named is MALME-3M melanoma.
Assay [10] concerns MCF7 breast.
In assay [11] the test system is MDA-MB-435.
In assay [12] the test system is MDA-N.
Assay [13] concerns NCI-H23 lung.
In assay [14] the test system is NCI-H522 lung.
Assay [15] relates to OVCAR-4 ovarian.
For assay [16], the system named is OVCAR-8 ovarian.
Assay [17] has as its system SK-MEL-2 melanoma.
The subject of assay [18] is SK-OV-3 ovarian.
Assay [19] relates to SNB-75 CNS.
Assay [20] relates to T-47D breast.

In the case of `COc1ccc(C(=C2C(=O)N(c3ccccc3)C(=O)C2=C(C)C)c2ccc(OC)cc2)cc1`, the TGI in assay [1] was more than 39.2 µM; in assay [2], more than 33.3 µM; in assay [3], more than 58 µM; in assay [4], 6.32 µM; in assay [5] it was 20.2 µM; in assay [6] it was more than 100 µM. Also, the TGI in [7] is more than 54.4 µM; in [8] it was more than 31.3 µM; in assay [9], more than 100 µM; in [10] it was more than 45.4 µM; in [11] it was 4.9 µM; in assay [12], 4.11 µM. Also, the TGI in assay [13] is more than 39.4 µM; in assay [14], 15.7 µM; in [15], more than 29.3 µM; in assay [16] it was more than 32.1 µM; in assay [17], more than 42.3 µM; in assay [18], more than 56.1 µM. In addition, the TGI in assay [19] is more than 43.6 µM; in [20], more than 100 µM.
Turning to `COC(=O)N/N=C(\c1ccccc1)c1ccc(OC)cc1`, the TGI in assay [1], in assay [2], in assay [3], in assay [4], in [5] and in [6] was more than 100 µM each time. Besides, the TGI in assay [7], in assay [8], in [9], in [10], in [11] and in assay [12] was more than 100 µM in each case. The TGI in [13], in assay [14], in assay [15], in [16], in [17] and in [18] was more than 100 µM in each case. In addition, the TGI in assay [19] and in assay [20] was more than 100 µM throughout.
On to `O=C1CSC(c2ccccc2O)N1c1nc2cc3sc(N4C(=O)CSC4c4ccccc4O)nc3cc2s1` (stereo not given), for which the TGI in [1], in [2], in assay [3], in assay [4], in [5] and in assay [6] was more than 100 µM throughout. Moreover, the TGI in assay [7], in assay [8], in [9], in [10], in assay [11] and in assay [12] was more than 100 µM in each case. The TGI in assay [13], in assay [14], in assay [15], in [16], in [17] and in assay [18] was more than 100 µM in each case. Moreover, the TGI in [19] and in assay [20] was more than 100 µM each time.
For `CC(C)(C)OC(=O)NC(CS(=O)(=O)O)C(=O)O` (stereo not given), the TGI in [1], in assay [2], in assay [3], in [4], in assay [5] and in assay [6] was more than 100 µM each time. Also, the TGI in assay [7], in assay [8], in [9], in assay [10], in assay [11] and in [12] was more than 100 µM each time. For the same molecule, the TGI in [13], in assay [14], in assay [15], in assay [16], in [17] and in assay [18] was more than 100 µM in each case. Further, the TGI in assay [19] and in assay [20] was more than 100 µM throughout.
Turning to `CC1OC(OCC2OC(Oc3ccc(C4CC(=O)c5c(O)cc(O)cc5O4)cc3O)C(O)C(O)C2O)C(O)C(O)C1O` (stereo not given), the TGI in assay [1], in assay [2], in assay [3], in [4], in [5] and in [6] was more than 100 µM throughout. Moreover, the TGI in assay [7], in [8], in [9], in [10], in assay [11] and in [12] was more than 100 µM each time. The TGI in assay [13], in assay [14], in [15], in assay [16], in assay [17] and in assay [18] was more than 100 µM in each case. Further, the TGI in assay [19] and in [20] was more than 100 µM throughout.
For `CC(=O)OCC1OC(Oc2cc(C)c(O)cc2C/C=C(\C)CC/C=C(\C)C[C@@H](C=C(C)C)OC(C)=O)C(O)C(OC(C)=O)C1OC(C)=O` (stereo not given in full), the TGI in assay [1] is more than 50 µM; in assay [2], 16.8 µM; in assay [3] it was more than 50 µM; in assay [4], 21 µM; in assay [5], more than 50 µM; in assay [6] it was 35.4 µM. In addition, the TGI in assay [7] is more than 50 µM; in assay [8] it was 47.3 µM; in assay [9], more than 50 µM; in assay [10] it was more than 50 µM; in assay [11] it was more than 50 µM; in [12] it was more than 50 µM. Also, the TGI in [13], in [14], in assay [15], in assay [16], in [17] and in assay [18] was more than 50 µM in each case. The figures for the TGI in assay [19] and in assay [20] were 48.2 µM and 30.7 µM, respectively.
Turning to `Nc1nnc2oc3ccc4ccccc4c3cc1-2`, the TGI in [1] is more than 100 µM; in assay [2], 56.8 µM; in assay [3], more than 100 µM; in [4], 67.9 µM; in assay [5], more than 100 µM; in [6], more than 100 µM. In addition, the TGI was more than 100 µM in assay [7]; more than 100 µM in assay [8]; 89.8 µM in [9]; more than 100 µM in [10]; more than 100 µM in [11]; more than 100 µM in assay [12]. For the same molecule, the TGI in [13] is more than 100 µM; in assay [14], more than 100 µM; in [15] it was more than 100 µM; in assay [16], more than 100 µM; in assay [17] it was 72.5 µM; in [18], more than 100 µM. The TGI in assay [19] worked out at 81 µM; in assay [20] it was 65.4 µM.
Regarding `CCc1ccc(/C=C/C(=O)C2CN(CC)CCC2(O)/C=C/c2ccc(CC)cc2)cc1` (stereo not given), the TGI was 11.2 µM in assay [1]; 6.21 µM in assay [2]; 21.6 µM in assay [3]; more than 24.6 µM in [4]; 3.79 µM in assay [5]; 8.94 µM in assay [6]. Moreover, the TGI turned out to be 3.5 µM in assay [7]; 2.9 µM in [8]; 20 µM in assay [9]; 7.34 µM in assay [10]; 4.07 µM in assay [11]; 10.6 µM in assay [12]. The TGI is 11.5 µM in [13]; 4.79 µM in assay [14]; 14.7 µM in assay [15]; 11.6 µM in assay [16]; 18.7 µM in assay [17]; 25 µM in assay [18]. In addition, the TGI stood at 21.6 µM in assay [19] and 10.1 µM in [20].
For the molecule `CCCCCC(=Nc1n[nH]nc1C(N)=O)OCC`, the TGI in assay [1], in assay [2], in assay [3], in assay [4], in assay [5] and in [6] was more than 100 µM throughout. The TGI in [7], in assay [8], in [9], in assay [10], in [11] and in assay [12] was more than 100 µM throughout. For the same molecule, the TGI in assay [13], in assay [14], in assay [15], in [16], in [17] and in assay [18] was more than 100 µM throughout. The TGI in assay [19] and in [20] was more than 100 µM throughout.
In the case of `COC(=O)N/N=C(/c1nc2ccc([N+](=O)[O-])cc2[nH]c1=O)C(O)c1ccc(OC)c(OC)c1` (stereo not given), the TGI is more than 100 µM in [1]; more than 76.9 µM in [2]; more than 100 µM in [3]; more than 100 µM in assay [4]; more than 100 µM in [5]; more than 100 µM in [6]. Also, the TGI in [7] was more than 100 µM; in assay [8] it was more than 61.7 µM; in [9], more than 100 µM; in assay [10], more than 100 µM; in assay [11] it was more than 100 µM; in [12], more than 100 µM. For the same molecule, the TGI in assay [13], in [14], in assay [15], in assay [16], in assay [17] and in assay [18] was more than 100 µM throughout. The TGI in [19] and in assay [20] was more than 100 µM throughout.
On to `CN(C)CCCN1c2ccc([N+](=O)[O-])cc2CCc2cc([N+](=O)[O-])ccc21`, for which the TGI is 29.2 µM in assay [1]; 32 µM and 29.4 µM in assay [2]; 30.2 µM and 33 µM in [3]; 31 µM and 30.1 µM in assay [4]; 30.8 µM and 27.7 µM in assay [5]; 59.5 µM and 31.2 µM in [6]. Moreover, the TGI was 28.6 µM and 33.1 µM in assay [7]; 32.4 µM and 26.5 µM in [8]; 23.2 µM and 32.8 µM in [9]; 31.2 µM in assay [10]; 26.5 µM and 29.5 µM in [11]; 27.2 µM and 27 µM in assay [12]. In addition, the TGI was 33.7 µM and 34.9 µM in assay [13]; 32.3 µM and 34 µM in [14]; 14 µM and 31.3 µM in assay [15]; 29.5 µM and 30 µM in assay [16]; 36.9 µM and 32.4 µM in [17]; 32.4 µM and 29 µM in assay [18]. For the same molecule, the TGI in assay [19] was 24.8 µM and 29.3 µM; in [20] it was 32.1 µM and 36.3 µM.
Turning to `C=C1CC(C)(COc2ccc3c(C)cc(=O)oc3c2)OC1=O` (stereo not given), the TGI is 7.56 µM in assay [1]; 2.86 µM in assay [2]; 8.96 µM in assay [3]; 3.94 µM in assay [4]; 4.5 µM in [5]; more than 31.9 µM in assay [6]. In addition, the TGI in [7] was 17.4 µM; in assay [8] it was 5.11 µM; in [9], 6.75 µM; in assay [10] it was 2.39 µM; in assay [11], 8.92 µM; in assay [12], 8.29 µM. For the same molecule, the TGI in assay [13] was found to be 14.1 µM; in assay [14], 0.491 µM; in assay [15] it was 9.06 µM; in assay [16], 14.8 µM; in [17] it was 5.18 µM; in assay [18] it was 15.1 µM. Further, the figures for the TGI in assay [19] and in assay [20] were 16.3 µM and 3.8 µM, respectively.
As for `CSc1ccc(/C=C2\N=C(c3ccccc3)N(/N=C3\C(=O)Nc4ccccc43)C2=O)cc1`, the TGI in assay [1], in assay [2], in assay [3], in assay [4], in [5] and in assay [6] was more than 100 µM throughout. Moreover, the TGI in [7], in assay [8], in assay [9], in assay [10], in assay [11] and in assay [12] was more than 100 µM in each case. Moreover, the TGI in [13], in [14], in [15], in assay [16], in assay [17] and in assay [18] was more than 100 µM in each case. For the same molecule, the TGI in assay [19] and in [20] was more than 100 µM each time.
